Series [1] has as its system proteins involved in foot-and-mouth disease virus replication [구제역바이러스의 증식에 관여하는 단백질]. The settings on record: cited from earlier work.
Series [2] has as its system IFN-α [인터페론 알파(IFN-α)]. Also noted: species or system Balb/C mouse. The settings on record: mouse, in vivo.
Series [3] relates to human hepatitis C virus [인간 간염 바이러스 C형(HCV)]. The following applies: cited from earlier work.
The subject of series [4] is porcine interferon alpha protein [돼지 인터페론 알파 단백질]. It is filed as cell-based.
Series [5] has as its system enterovirus 71 [엔테로바이러스 71(EV71)]. The following applies: cited from earlier work.
In series [6] the target is T1, TLR7 (toll-like receptor 7) (Homo sapiens, UniProt Q9NYK1).
T1 sequence (Q9NYK1 27-1049): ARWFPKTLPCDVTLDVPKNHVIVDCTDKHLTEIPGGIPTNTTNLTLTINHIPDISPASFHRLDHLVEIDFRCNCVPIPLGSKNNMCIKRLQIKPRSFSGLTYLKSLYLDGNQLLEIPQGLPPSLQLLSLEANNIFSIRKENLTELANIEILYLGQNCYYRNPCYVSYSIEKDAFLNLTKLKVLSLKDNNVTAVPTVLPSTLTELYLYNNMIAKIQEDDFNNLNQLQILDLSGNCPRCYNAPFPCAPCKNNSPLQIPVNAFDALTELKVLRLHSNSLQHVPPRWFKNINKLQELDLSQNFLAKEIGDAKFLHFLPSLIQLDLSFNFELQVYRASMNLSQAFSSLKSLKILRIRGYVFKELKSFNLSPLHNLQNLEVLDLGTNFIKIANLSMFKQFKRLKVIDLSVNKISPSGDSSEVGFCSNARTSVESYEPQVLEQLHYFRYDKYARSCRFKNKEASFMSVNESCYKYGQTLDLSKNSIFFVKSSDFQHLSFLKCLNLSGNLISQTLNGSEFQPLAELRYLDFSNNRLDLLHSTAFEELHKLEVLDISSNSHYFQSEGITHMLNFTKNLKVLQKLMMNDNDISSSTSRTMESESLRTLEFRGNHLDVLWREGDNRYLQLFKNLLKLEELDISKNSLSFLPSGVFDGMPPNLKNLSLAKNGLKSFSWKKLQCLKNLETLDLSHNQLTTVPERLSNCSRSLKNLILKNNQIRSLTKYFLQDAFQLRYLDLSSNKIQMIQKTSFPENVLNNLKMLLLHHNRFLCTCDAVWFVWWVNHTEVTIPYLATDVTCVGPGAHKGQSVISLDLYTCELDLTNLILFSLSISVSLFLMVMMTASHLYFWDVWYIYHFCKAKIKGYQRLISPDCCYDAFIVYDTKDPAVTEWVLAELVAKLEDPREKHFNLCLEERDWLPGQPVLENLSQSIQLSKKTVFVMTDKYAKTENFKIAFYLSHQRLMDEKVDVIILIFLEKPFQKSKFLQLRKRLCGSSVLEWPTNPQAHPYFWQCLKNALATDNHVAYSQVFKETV
The following applies: oral administration; cited from earlier work.

Series [7] deals with LFBK cells [LFBK 세포]. As to the kind of experiment: Cytotoxicity by MTS assay (Test Example 1). It is filed as cell-based, porcine. The settings on record: no virus, values in Table 1 (missing). (In general: Tetrazolium dyes change colour on reduction, which living cells bring about.)
Series [8] concerns foot-and-mouth disease virus O/SKR/Boeun/2017 [구제역바이러스(O/SKR/Boeun/2017)]. The series is classed as cell-based.
Series [9] has as its system foot-and-mouth disease virus O/VIT/2013 [구제역바이러스 O/VIT/2013]. It is filed as in vivo, C57BL/6 mouse. The following applies: for survival rate: 16 h before challenge with 250 LD50, day 7.
In series [10] the test system is IP-10 [IP-10(CXCL10)]. Also noted: species or system Balb/C mouse. The following applies: mouse, in vivo.
Series [11] concerns IL-12. Also noted: species or system Balb/C mouse. The settings on record: mouse, in vivo.
Series [12] has as its system human immunodeficiency virus [인간면역결핍 바이러스(HIV)]. The settings on record: cited from earlier work.
For series [13], the system named is interferon-stimulated gene [인터페론-자극 유전자(interferon-stimulated gene; ISG)]. The following applies: oral administration, human and laboratory animals; cited from earlier work.
The subject of series [14] is foot-and-mouth disease virus O/SKR/Boeun/2017 [O/SKR/Boeun/2017 바이러스]. It is filed as cell-based.
Series [15] has as its system IL-6. Also noted: species or system Balb/C mouse. The following applies: mouse, in vivo.
Series [16] deals with IFN-γ [인터페론 감마(IFN-γ)]. On the set-up: species or system Balb/C mouse. The following applies: mouse, in vivo.
For series [17], the system named is chronic hepatitis B virus [B형 만성 간염 바이러스]. The following applies: oral administration, human and laboratory animals; cited from earlier work.

Structures are written as SMILES. Where a name gives a salt, the structure may show the parent alone. Read-outs that look alike come from different tables or passages of the source.

With `O=c1cnn([C@@H]2O[C@H](CO)[C@@H](O)[C@H]2O)c(=O)[nH]1` [6-아자우리딘(azauridine)], the “inhibition of proteins involved in FMDV replication” value (shortened to “inhibition of proteins involved”) in series [1] was “구제역바이러스의 증식에 관여하는 단백질을 억제”.
Turning to `CCCCOc1nc(N)c2c(n1)N(Cc1cccc(CN3CCCC3)c1)CC(=O)N2` [GS-9620, 베사톨리모드(Vesatolimod; GS-9620)], the IFN-α induction entry in [2] is on record as “유도되어 나타났다”. The antiviral effect entry in [3], in series [5] and in series [12] was “항바이러스 효과” throughout. In addition, the IFN-α protein induction result in series [4] is recorded as “IFN-α 단백질을 성공적으로 유도”. In series [6], the TLR7 agonist activity entry is recorded as “효능제(agonist)로 작용”. In series [7], the cytotoxicity result is listed as “낮은 세포독성”. Also, the “FMDV replication inhibitory effect, dose dependence” value in series [8] (2500~156.2 μM, 24 h pretreatment, 100 TCID50, 48 h) is given as “용량에 비례하여 구제역바이러스 증식억제 효과를 발휘”. Further, the “FMDV replication inhibitory effect compared with ribavirin” value in series [8] (same concentration, P<0.05, 100 TCID50, 48 h) is given as “같은 농도에서 더 우수한 바이러스 증식효과”. The survival rate was 100% in series [9] (10 mg/kg i.p.) and 80% in series [9] (printed dose 25 mg/kg ('halved'), i.p.). For the same compound, the “survival rate (duration of protection)” value in [9] (10 mg/kg i.p., up to day 5 after administration (challenge 1, 3, 5 days after dosing, 250 LD50)) turned out to be 100%. Besides, in series [10], the IP-10 induction entry is listed as “신속하게 또한 지속적으로 유도”. Besides, the IL-12 induction result in series [11] was “증가가 확인된”. Also, the “induction of ISG expression” value in series [13] is “발현을 유도”. Also, the “selectivity index (CC50/EC50)” value in series [14] (LFBK cells, 24 h pretreatment, 100TCID50 virus, 24 h after inoculation) is given as roughly 650.5. Further, the virus inhibitory effect entry in series [14] (LFBK cells, MTS assay, values in Table 1 (missing)) was “우수한 바이러스 억제효과”. Moreover, in [14] (compared with ribavirin), the “selectivity index relative to ribavirin (fold higher)” value is recorded as roughly 5 fold. Further, in series [15], the IL-6 induction entry is “신속하게 또한 지속적으로 유도”. In addition, the IFN-γ induction entry in series [16] was “유도되어 나타났다”. In series [17], the “inhibition of hepatitis B virus” value is reported as “B형 만성 간염 바이러스를 억제”.
For `N=C(N)N` [구아니딘(Guanidine)-HCl], in series [1], the “inhibition of proteins involved” value is given as “구제역바이러스의 증식에 관여하는 단백질을 억제”.
As to `NC(=O)c1ncn([C@@H]2O[C@H](CO)[C@@H](O)[C@H]2O)n1` [리바비린, 리바비린(ribavirin)], in [1], the “inhibition of proteins involved” value is recorded as “구제역바이러스의 증식에 관여하는 단백질을 억제”.
